Test results reported in patent publication US8101605B2, “SHIP1 modulators and methods related thereto” (Aquinox Pharmaceuticals Inc., priority 2009, dated 2012).

Legend:
[1] = system: Akt phosphorylation in Molt-4 (PTEN−/SHIP1+) cells; assay: Akt phosphorylation in IGF-1 stimulated Molt-4 lymphocytes (western blot); format: cell-based; parameters: key: +: inhibits Akt phosphorylation at 10 μM; −: no effect on Akt phosphorylation at 10 μM; conditions: 10 μM; IGF-1 stimulation
Protocol: (§1) Jurkat (PTEN−/SHIP1−) or Molt-4 (PTEN−/SHIP1+) cells were starved in serum free RPMI for overnight. In a 15 mL conical tube, 2-3 million serum starved cells (1 million cells per mL) were treated with various concentrations of test compound (0.1, 1, or 10 μM final in 0.1% DMSO) for 30 min at 37° C. followed by stimulation with 100 ng/mL of IGF-1 for 1 hour at 37° C. After stimulation, cells were washed once with ice-cold DPBS and lysed with Lysis Buffer (20 mM Tris-HCl, pH 7.5, 140 mM NaCl, 1% NP-40, Complete Mini Protease Inhibitor Cocktail, 10 mM NaF, 1 mM Na3VO4, 1 mM β-glycerolphosphate) on ice for 30 min with vortexing every 10 min. Samples were then centrifuged at 13,000 rpm for 20 min, and supernatants were collected as total cell lysate samples. Protein concentration was determined using bicinchonic acid assay, and about 15 μg of total protein from each sample was loaded and separated on a 4-12% Tris-Glycine gel. After SDS-PAGE, proteins were transferred from the gel to a nitrocellulose membrane. The membrane was blocked in 5% BSA in PBS containing 0.1% Tween-20 (PBS-T) for 1 hour at room temperature before probing with primary antibodies for overnight at 4° C. The following antibodies were used: mouse anti-SHIP1 (1:500 dilution; Santa Cruz, Calif., USA), rabbit anti-phospho-Akt(Ser473) (1:1000 dilution; Cell Signaling Technologies, MA, USA), rabbit anti-Akt (1:1000; Cell Signaling Technologies, MA, USA), and rabbit anti-actin (1:2000; Cell Signaling Technologies, MA, USA). The membrane was then incubated with goat anti-rabbit or anti-mouse secondary antibodies (1:3000) for 1 hour at room temperature. Target proteins on the membrane were detected with ECL solution and exposed on a film.
(§2) Scoring in Table 3 is expressed as follows: + (inhibits Akt phosphorylation at 10 μM); − (no effect on Akt phosphorylation at 10 μM).

His-hSHIP1 enzyme = biological target: T1, His-hSHIP1 enzyme (Homo sapiens, UniProt Q92835); assay: His-hSHIP1 phosphatase activity assay (IP4 substrate, Biomol Green); format: biochemical; conditions: percentage increase relative to background; concentrations ≦300 μM
T1 sequence (Q92835 1-1189): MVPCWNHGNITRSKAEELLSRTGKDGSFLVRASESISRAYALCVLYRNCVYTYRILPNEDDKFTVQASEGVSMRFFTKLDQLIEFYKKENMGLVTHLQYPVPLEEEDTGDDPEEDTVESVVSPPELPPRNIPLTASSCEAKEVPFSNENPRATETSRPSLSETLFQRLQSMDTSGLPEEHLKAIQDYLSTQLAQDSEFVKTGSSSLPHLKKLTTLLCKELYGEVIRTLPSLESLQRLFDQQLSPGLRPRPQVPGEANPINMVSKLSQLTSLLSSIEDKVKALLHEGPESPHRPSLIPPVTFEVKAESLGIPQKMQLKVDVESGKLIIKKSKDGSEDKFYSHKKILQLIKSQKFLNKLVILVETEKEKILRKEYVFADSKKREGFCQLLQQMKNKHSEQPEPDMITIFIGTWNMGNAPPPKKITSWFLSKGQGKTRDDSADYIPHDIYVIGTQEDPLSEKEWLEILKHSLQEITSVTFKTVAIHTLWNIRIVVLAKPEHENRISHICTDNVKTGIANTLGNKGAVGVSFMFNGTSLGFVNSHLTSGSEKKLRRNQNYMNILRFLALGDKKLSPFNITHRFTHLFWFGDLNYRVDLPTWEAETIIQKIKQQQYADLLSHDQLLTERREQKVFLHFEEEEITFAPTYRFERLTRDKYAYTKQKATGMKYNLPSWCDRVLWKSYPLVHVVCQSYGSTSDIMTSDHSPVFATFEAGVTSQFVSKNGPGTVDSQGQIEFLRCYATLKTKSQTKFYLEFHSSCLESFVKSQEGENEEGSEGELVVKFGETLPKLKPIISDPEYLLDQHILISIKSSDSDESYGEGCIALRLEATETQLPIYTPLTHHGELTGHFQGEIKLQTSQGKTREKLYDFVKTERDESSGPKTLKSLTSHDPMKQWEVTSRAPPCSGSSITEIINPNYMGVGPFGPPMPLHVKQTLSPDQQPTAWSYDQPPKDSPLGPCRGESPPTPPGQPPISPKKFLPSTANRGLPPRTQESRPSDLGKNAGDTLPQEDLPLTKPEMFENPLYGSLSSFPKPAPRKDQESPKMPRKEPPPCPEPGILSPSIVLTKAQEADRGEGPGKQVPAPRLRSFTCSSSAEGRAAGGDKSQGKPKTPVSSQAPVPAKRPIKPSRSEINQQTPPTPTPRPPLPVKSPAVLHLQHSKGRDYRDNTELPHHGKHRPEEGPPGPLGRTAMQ
Protocol: Test compounds were dissolved in 95% ethanol to form stock solutions. Before screening, the stock solutions were diluted with Phosphatase Assay Buffer (20 mM Tris-HCL, 10 mM MgCl2 pH 7.5, 0.02% Tween 20) to form working assay solutions that contained 10% ethanol. The assay was carried out on 96-well microtiter plates using a modified procedure of that reported by Ong et al., Blood 110, 1942-1949, 2007 and Yang et al., Org Lett 7, 1073-1076, 2005, both of which references are incorporated herein by reference in their entirety.
Each reaction contained 5 μL of His-hSHIP1 enzyme (15-20 ng), 10 μL of the substrate, 1,3,4,5-inositol tetrakisphosphate (IP4; 50 μM final), 5 μL of Phosphatase Assay Buffer, and 5 μL of test compound at various concentrations in 10% ethanol (0-300 μM final). Control blanks were also prepared by replacing His-hSHIP1 enzyme, IP4, or test compounds with Phosphatase Assay Buffer. After adding the reaction components in a 96-well microtiter plate on ice, the reaction was mixed by briefly shaking the plate vigorously. The reaction was then incubated at 37° C. for 15 min with gentle shaking followed by addition of 100 μL of Biomol Green Reagent (BIOMOL, PA, USA) to terminate the reaction. The free phosphate released from IP4 by His-hSHIP1 bound to the Biomol Green Reagent, turning the solution green in colour. After incubating the mixture for 20 min at room temperature for colour development, the absorbance was read with a SpectraMax Plus 96-well plate reader (Molecular Devices, Sunnyvale, Calif., USA) at a wavelength of 650 nm.
Percent (%) activation in Table 2 is expressed as a percentage increase relative to background. Scoring is expressed as follows: + (<50%); ++ (≧50% but <65%); +++ (≧65%).

[2] = system: Akt phosphorylation in Jurkat (PTEN−/SHIP1−) cells; assay: Akt phosphorylation in IGF-1 stimulated Jurkat lymphocytes (western blot); format: cell-based; parameters: key: +: inhibits Akt phosphorylation at 10 μM; −: no effect on Akt phosphorylation at 10 μM; conditions: 10 μM; IGF-1 stimulation
Protocol: as §1, §2

OPM2 cells = assay: Inhibition of OPM2 proliferation (BrdU ELISA); format: cell-based; conditions: Homo sapiens, OPM-2, 72 hours, read-out: Scoring: % inhibition of OPM2 proliferation
Protocol: Test compounds were dissolved in 100% DMSO to form stock solutions. Prior to screening, the stock solutions were diluted with complete media (RPMI 1640 containing 10% fetal calf serum, 2 mM L-glutamine and 50 U/mL each of penicillin and streptomycin) to form working assay solutions that contain 0.2% DMSO. The assay was initiated by adding 30,000 OPM2 cells (in 50 μL) to 50 μL of representative compounds at concentrations ranging from 0.03 to 30 μM. The cells were incubated for 72 hours in a humidified CO2 incubator with the addition of 10 μM BrdU for the final 6 hours according to the directions from the Roche BrdU Cell Proliferation ELISA kit used to detect proliferation (Roche, Cat. No. 11 647 229 001). OPM2 cells incubated in 0.1% DMSO in complete media were used as a negative control and the PI3Kα Inhibitor 2 (3-[4-(4-morpholinyl)thieno[3,2-d]pyrimidin-2-yl-phenol, Cayman Chemical, Cat. No. 10010177) was used as a positive control for inhibition of proliferation. At the end of the incubation, the plate containing the labeled cells was centrifuged, the supernatant removed and the cell pellets dried at 60° C. for 1 hour and stored at 4° C. until further analysis. Analysis of BrdU incorporation was done according to the manufacturer's instructions.

CC1(C)CCC[C@]2(C)[C@H]3COc4cc(O)cc(O)c4[C@]3(C)CC[C@@H]12 [Compound No. 50, (1R,10R,11S,16S)-1,11,15,15-tetramethyl-8-oxatetracyclo[8.8.0.0^2,7.0^11,16]octadeca-2,4,6-triene-3,5-diol]
Akt phosphorylation, Molt-4 (SHIP1+) [1]: +
Scoring: percent (%) activation of His-hSHIP1 enzyme (His-hSHIP1 enzyme): + (<50%)
Akt phosphorylation, Jurkat (SHIP1−) [2]: −

CNC(=O)c1cc(O)c2c(c1)S(=O)(=O)C[C@@H]1[C@@]3(C)CCCC(C)(C)[C@@H]3CC[C@@]21C [Compound No. 62]
inhibition at 30 µM (OPM2 cells): 25 to 75%
Scoring: percent (%) activation of His-hSHIP1 enzyme (His-hSHIP1 enzyme): ++ (≧50% but <65%)

COc1cc(O)cc2c1[C@]1(C)CC[C@H]3C(C)(C)CCC[C@]3(C)[C@H]1CS2(=O)=O [compound 57, (1R,10R,11S,16S)-5-hydroxy-3-methoxy-1,11,15,15-tetramethyl-8λ^6-thiatetracyclo[8.8.0.0^2,7.0^11,16]octadeca-2,4,6-triene-8,8-dione]
inhibition at 30 µM (OPM2 cells): ≥ 75%
Scoring: percent (%) activation of His-hSHIP1 enzyme (His-hSHIP1 enzyme): + (<50%)

CC1(C)CCC[C@]2(C)[C@H]3CSc4cc(O)cc(C#N)c4[C@]3(C)CC[C@@H]12 [compound 78, (1R,10R,11S,16S)-5-hydroxy-1,11,15,15-tetramethyl-8-thiatetracyclo[8.8.0.0^2,7.0^11,16]octadeca-2,4,6-triene-3-carbonitrile]
inhibition at 30 µM (OPM2 cells): ≥ 75%
Scoring: percent (%) activation of His-hSHIP1 enzyme (His-hSHIP1 enzyme): + (<50%)

CNC(=O)c1cc(OC)c2c(c1)S(=O)(=O)C[C@@H]1[C@@]3(C)CCCC(C)(C)[C@@H]3CC[C@@]21C [compound 81, (1R,10R,11S,16S)-3-methoxy-N,1,11,15,15-pentamethyl-8,8-dioxo-8λ^6-thiatetracyclo[8.8.0.0^2,7.0^11,16]octadeca-2,4,6-triene-5-carboxamide]
inhibition at 30 µM (OPM2 cells): 25 to 75%
Scoring: percent (%) activation of His-hSHIP1 enzyme (His-hSHIP1 enzyme): + (<50%)

CC1(C)CCC[C@]2(C)[C@H]3CS(=O)(=O)c4cc(C(=O)N5CCOCC5)cc(O)c4[C@]3(C)CC[C@@H]12 [compound 87, (1R,10R,11S,16S)-3-hydroxy-1,11,15,15-tetramethyl-5-[(morpholin-4-yl)-carbonyl]-8λ^6-thiatetracyclo[8.8.0.0^2,7.0^11,16]-octadeca-2,4,6-triene-8,8-dione]
inhibition at 30 µM (OPM2 cells): 25 to 75%
Scoring: percent (%) activation of His-hSHIP1 enzyme (His-hSHIP1 enzyme): ++ (≧50% but <65%)

CN1CCN(C(=O)c2cc(O)c3c(c2)S(=O)(=O)C[C@@H]2[C@@]4(C)CCCC(C)(C)[C@@H]4CC[C@@]32C)CC1 [compound 89, (1R,10R,11S,16S)-3-hydroxy-1,11,15,15-tetramethyl-5-[(4-methylpiperazin-1-yl)-carbonyl]-8λ^6-thiatetracyclo[8.8.0.0^2,7.0^11,16]octadeca-2,4,6-triene-8,8-dione]
inhibition at 30 µM (OPM2 cells): ≥ 75%
Scoring: percent (%) activation of His-hSHIP1 enzyme (His-hSHIP1 enzyme): + (<50%)

COC(=O)CNC(=O)c1cc(O)c2c(c1)S(=O)(=O)C[C@@H]1[C@@]3(C)CCCC(C)(C)[C@@H]3CC[C@@]21C [compound 92, methyl 2-{[(1R,10R,11S,16S)-3-hydroxy-1,11,15,15-tetramethyl-8,8-dioxo-8λ^6-thiatetracyclo[8.8.0.0^2,7.0^11,16]octadeca-2,4,6-trien-5-yl]formamido}acetate]
inhibition at 30 µM (OPM2 cells): ≥ 75%
Scoring: percent (%) activation of His-hSHIP1 enzyme (His-hSHIP1 enzyme): + (<50%)

CC1(C)CCC[C@]2(C)[C@H]3CS(=O)(=O)c4cc(C(=O)N5CCNCC5)cc(O)c4[C@]3(C)CC[C@@H]12 [compound 102, (1R,10R,11S,16S)-3-hydroxy-1,11,15,15-tetramethyl-5-[(piperazin-1-yl)carbonyl]-8λ^6-thiatetracyclo[8.8.0.0^2,7.0^11,16]-octadeca-2,4,6-triene-8,8-dione]
inhibition at 30 µM (OPM2 cells): ≥ 75%
Scoring: percent (%) activation of His-hSHIP1 enzyme (His-hSHIP1 enzyme): + (<50%)

COc1cc(OCC(=O)N2CCOCC2)cc2c1[C@]1(C)CC[C@H]3C(C)(C)CCC[C@]3(C)[C@H]1CS2(=O)=O [compound 110, (1R,10R,11S,16S)-3-methoxy-1,11,15,15-tetramethyl-5-[2-(morpholin-4-yl)-2-oxoethoxy]-8^6-thiatetracyclo[8.8.0.0^2,7.0^11,16]octadeca-2,4,6-triene-8,8-dione]
inhibition at 30 µM (OPM2 cells): < 25%

COc1cc(OC)c2c(c1N)S(=O)(=O)C[C@@H]1[C@@]3(C)CCCC(C)(C)[C@@H]3CC[C@@]21C [compound 112, (1R,10R,11S,16S)-6-amino-3,5-dimethoxy-1,11,15,15-tetramethyl-8^6-thiatetracyclo[8.8.0.0^2,7.0^11,16]octadeca-2,4,6-triene-8,8-dione]
inhibition at 30 µM (OPM2 cells): ≥ 75%
